According to article PMC10004634 (PLOS ONE, 2023):

Columns and labels:
Assay in all cases: biochemical
Parameters in all cases: KINOMEscan scanMAX competition binding, DNA-tagged kinases, qPCR read-out, percent control at 300 nM
[1] = biological target: T1, p38-gamma (Homo sapiens, UniProt P53778); conditions: read-out: Percent control / Acalabrutinib
T1 construct: gene MAPK12

[2] = biological target: EPHA6 (Homo sapiens, UniProt Q9UF33); conditions: read-out: Percent control / Acalabrutinib
[3] = biological target: PRKD3 (Homo sapiens, UniProt O94806); conditions: read-out: Percent control / Acalabrutinib
[4] = biological target: T2, ABL1(Q252H)-nonphosphorylated (Homo sapiens, UniProt P00519, Q252H); conditions: read-out: Percent control / Acalabrutinib
T2 construct: nonphosphorylated

[5] = biological target: PIK3CA(H1047Y) (Homo sapiens, UniProt P42336, H1047Y); conditions: read-out: Percent control / Acalabrutinib
[6] = biological target: T3, YANK3 (Homo sapiens, UniProt Q86UX6); conditions: read-out: Percent control / Acalabrutinib
T3 construct: gene STK32C

[7] = biological target: TGFBR1 (Homo sapiens, UniProt P36897); conditions: read-out: Percent control / Acalabrutinib
[8] = biological target: PKN2 (Homo sapiens, UniProt Q16513); conditions: read-out: Percent control / Acalabrutinib
[9] = biological target: CAMK2G (Homo sapiens, UniProt Q13555); conditions: read-out: Percent control / Acalabrutinib
CAMK2G, sequence (Q13555 whole entry): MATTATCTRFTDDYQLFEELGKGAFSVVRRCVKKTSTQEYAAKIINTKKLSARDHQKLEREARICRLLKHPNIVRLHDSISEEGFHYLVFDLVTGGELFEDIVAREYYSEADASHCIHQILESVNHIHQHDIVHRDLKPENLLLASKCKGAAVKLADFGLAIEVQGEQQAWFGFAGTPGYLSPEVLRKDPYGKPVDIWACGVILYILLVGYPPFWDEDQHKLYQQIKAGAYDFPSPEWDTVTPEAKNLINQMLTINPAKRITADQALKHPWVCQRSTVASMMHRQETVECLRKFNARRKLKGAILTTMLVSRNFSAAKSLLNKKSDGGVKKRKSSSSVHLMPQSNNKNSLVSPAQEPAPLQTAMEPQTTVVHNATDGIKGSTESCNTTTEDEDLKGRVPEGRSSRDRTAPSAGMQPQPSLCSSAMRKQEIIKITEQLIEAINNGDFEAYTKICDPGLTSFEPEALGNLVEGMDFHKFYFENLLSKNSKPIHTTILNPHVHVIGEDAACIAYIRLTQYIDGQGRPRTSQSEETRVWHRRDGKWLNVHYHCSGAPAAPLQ

[10] = biological target: SIK2 (Homo sapiens, UniProt Q9H0K1); conditions: read-out: Percent control / Acalabrutinib
[11] = biological target: DAPK3 (Homo sapiens, UniProt O43293); conditions: read-out: Percent control / Ibrutinib
[12] = biological target: CAMK2A (Homo sapiens, UniProt Q9UQM7); conditions: read-out: Percent control / Ibrutinib
CAMK2A, sequence (Q9UQM7 whole entry, looked up): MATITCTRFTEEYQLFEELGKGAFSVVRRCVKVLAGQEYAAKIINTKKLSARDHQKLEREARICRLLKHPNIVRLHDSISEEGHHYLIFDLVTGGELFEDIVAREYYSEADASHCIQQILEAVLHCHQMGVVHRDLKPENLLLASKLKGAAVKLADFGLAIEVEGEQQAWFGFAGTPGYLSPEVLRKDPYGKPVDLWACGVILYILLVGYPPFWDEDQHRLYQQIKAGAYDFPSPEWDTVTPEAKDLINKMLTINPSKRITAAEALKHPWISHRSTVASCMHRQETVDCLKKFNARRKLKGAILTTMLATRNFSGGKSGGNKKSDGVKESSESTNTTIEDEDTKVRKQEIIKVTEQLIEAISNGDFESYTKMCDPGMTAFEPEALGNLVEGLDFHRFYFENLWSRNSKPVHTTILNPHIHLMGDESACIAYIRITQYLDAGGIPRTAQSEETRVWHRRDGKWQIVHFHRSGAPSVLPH

[13] = biological target: MARK3 (Homo sapiens, UniProt P27448); conditions: read-out: Percent control / Ibrutinib
MARK3, sequence (P27448 whole entry): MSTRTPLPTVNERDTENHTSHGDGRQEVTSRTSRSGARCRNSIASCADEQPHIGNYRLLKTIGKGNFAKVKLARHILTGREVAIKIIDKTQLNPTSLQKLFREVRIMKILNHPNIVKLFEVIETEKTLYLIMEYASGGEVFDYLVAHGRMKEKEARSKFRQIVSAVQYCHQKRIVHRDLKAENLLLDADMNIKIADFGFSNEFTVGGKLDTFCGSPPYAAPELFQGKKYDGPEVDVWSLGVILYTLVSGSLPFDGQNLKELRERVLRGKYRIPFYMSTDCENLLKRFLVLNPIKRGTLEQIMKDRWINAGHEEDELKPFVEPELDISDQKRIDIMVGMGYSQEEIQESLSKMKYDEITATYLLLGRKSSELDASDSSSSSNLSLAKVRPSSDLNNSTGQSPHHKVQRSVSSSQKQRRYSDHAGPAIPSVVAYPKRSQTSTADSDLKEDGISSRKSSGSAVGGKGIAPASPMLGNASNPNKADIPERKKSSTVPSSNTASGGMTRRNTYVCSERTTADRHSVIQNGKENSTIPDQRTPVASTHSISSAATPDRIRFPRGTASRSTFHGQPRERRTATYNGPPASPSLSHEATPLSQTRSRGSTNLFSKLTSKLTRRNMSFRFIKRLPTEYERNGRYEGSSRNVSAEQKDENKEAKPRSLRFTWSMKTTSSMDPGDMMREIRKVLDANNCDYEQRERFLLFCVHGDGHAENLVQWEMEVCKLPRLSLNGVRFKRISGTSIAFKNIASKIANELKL

[14] = biological target: MYO3B (Homo sapiens, UniProt Q8WXR4); conditions: read-out: Percent control / Ibrutinib
MYO3B, sequence (Q8WXR4 whole entry): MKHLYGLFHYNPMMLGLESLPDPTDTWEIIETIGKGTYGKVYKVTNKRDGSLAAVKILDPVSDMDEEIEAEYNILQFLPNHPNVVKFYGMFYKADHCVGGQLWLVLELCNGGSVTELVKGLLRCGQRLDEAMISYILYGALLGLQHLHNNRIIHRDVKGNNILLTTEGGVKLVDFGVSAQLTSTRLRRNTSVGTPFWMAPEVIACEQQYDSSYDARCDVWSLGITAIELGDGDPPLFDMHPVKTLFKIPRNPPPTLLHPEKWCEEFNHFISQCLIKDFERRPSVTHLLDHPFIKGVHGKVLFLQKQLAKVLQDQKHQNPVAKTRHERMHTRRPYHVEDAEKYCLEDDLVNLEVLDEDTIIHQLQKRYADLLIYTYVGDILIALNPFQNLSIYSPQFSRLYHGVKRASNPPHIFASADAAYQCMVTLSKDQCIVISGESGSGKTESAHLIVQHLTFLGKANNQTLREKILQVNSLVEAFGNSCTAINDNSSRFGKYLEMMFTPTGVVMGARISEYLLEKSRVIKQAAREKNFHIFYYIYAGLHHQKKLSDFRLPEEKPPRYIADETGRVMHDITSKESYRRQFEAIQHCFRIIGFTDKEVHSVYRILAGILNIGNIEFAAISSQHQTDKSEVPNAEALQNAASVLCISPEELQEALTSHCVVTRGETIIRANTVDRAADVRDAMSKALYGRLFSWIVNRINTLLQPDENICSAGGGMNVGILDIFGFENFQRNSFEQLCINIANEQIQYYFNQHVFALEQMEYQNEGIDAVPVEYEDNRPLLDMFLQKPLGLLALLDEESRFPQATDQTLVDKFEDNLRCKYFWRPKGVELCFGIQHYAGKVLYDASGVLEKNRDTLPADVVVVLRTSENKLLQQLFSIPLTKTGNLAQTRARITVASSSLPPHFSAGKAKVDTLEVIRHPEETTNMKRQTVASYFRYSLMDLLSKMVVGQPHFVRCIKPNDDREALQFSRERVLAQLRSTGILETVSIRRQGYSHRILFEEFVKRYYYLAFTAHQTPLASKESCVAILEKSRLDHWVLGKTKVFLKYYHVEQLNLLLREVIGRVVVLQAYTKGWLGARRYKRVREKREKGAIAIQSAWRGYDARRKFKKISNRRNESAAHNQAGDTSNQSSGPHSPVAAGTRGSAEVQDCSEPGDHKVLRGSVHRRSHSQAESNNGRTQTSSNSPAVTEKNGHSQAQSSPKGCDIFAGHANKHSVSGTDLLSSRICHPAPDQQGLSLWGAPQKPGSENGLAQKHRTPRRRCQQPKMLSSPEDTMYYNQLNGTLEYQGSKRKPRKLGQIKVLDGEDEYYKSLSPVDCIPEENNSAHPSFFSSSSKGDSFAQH

[15] = biological target: EGFR(L747-T751del,Sins) (Homo sapiens, UniProt P00533, DEL747-750/T751S); conditions: read-out: Percent control / Tirabrutinib
[16] = biological target: T4, SIK (Homo sapiens, UniProt P57059); conditions: read-out: Percent control / Zanubrutinib
T4 construct: gene SIK1
T4 sequence (P57059 whole entry): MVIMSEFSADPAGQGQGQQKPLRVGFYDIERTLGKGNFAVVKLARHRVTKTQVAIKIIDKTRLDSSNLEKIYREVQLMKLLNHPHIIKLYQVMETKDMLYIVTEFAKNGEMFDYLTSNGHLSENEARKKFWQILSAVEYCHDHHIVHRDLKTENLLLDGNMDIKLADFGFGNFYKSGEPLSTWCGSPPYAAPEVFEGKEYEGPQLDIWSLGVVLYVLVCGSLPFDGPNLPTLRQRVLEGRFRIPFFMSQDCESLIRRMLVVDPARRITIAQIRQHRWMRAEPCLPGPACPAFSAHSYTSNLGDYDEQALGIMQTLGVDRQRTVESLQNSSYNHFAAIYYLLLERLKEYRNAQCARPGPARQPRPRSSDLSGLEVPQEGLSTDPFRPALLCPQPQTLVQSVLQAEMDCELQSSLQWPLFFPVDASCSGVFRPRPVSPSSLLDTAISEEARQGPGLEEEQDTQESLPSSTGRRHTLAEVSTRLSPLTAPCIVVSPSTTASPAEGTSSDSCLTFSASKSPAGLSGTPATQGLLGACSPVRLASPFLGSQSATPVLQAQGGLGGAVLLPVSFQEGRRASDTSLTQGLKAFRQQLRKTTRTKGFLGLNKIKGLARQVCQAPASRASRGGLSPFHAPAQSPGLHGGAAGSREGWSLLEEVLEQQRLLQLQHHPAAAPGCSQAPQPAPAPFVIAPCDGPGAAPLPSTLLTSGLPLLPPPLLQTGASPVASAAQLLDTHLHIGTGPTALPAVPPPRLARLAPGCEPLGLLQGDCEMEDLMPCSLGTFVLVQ

[17] = biological target: LRRK2 (Homo sapiens, UniProt Q5S007); conditions: read-out: Percent control / Zanubrutinib
[18] = biological target: RIOK2 (Homo sapiens, UniProt Q9BVS4); conditions: read-out: Percent control / Zanubrutinib
[19] = biological target: T5, S6K1 (Homo sapiens, UniProt P23443); conditions: read-out: Percent control / Zanubrutinib
T5 construct: gene RPS6KB1

[20] = biological target: TNK1 (Homo sapiens, UniProt Q13470); conditions: read-out: Percent control / Zanubrutinib
[21] = biological target: GRK1 (Homo sapiens, UniProt Q15835); conditions: read-out: Percent control / Zanubrutinib
[22] = biological target: T6, TRKC (Homo sapiens, UniProt Q16288); conditions: read-out: Percent control / Zanubrutinib
T6 construct: gene NTRK3

[23] = biological target: EPHA5 (Homo sapiens, UniProt P54756); conditions: read-out: Percent control / Zanubrutinib

EPHA6, sequence (Q9UF33 whole entry): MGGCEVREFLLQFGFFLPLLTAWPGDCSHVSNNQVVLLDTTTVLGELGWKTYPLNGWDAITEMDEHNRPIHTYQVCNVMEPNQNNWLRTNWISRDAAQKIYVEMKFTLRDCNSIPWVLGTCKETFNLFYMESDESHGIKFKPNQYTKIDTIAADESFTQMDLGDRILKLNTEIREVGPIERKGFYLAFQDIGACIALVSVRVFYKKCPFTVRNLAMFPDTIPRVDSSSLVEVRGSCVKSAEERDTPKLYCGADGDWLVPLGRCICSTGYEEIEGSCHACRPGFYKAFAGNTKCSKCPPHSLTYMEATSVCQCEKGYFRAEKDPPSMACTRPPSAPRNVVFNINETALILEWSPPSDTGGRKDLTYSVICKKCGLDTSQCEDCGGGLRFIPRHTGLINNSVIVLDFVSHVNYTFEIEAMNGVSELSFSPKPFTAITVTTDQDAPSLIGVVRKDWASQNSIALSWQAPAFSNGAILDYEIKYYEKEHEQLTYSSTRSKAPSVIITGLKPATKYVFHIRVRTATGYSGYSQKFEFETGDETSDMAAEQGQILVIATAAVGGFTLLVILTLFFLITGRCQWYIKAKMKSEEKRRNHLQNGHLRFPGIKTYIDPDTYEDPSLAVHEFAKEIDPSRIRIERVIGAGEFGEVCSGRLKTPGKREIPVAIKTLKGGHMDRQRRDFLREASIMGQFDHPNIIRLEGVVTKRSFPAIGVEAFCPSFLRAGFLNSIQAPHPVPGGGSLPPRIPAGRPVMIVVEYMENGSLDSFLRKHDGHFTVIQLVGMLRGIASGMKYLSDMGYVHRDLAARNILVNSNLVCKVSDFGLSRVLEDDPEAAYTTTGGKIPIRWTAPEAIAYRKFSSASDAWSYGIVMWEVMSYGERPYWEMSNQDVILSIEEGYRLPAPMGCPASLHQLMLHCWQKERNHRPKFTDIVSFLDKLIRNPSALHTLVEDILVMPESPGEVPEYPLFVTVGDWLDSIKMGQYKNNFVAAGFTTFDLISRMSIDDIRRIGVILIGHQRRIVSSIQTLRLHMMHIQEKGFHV

With `CC#CC(=O)N1CCC[C@H]1c1nc(-c2ccc(C(=O)Nc3ccccn3)cc2)c2c(N)nccn12` [Acalabrutinib] the remaining binding at 0.3 µM [1] was 75%, the remaining binding at 0.3 µM [2] was 93% and the remaining binding at 0.3 µM [3] was 81%. It also gave a remaining binding at 0.3 µM [4] of 84%, a remaining binding at 0.3 µM [5] of 70% and a remaining binding at 0.3 µM [6] of 84%. For the same compound, the remaining binding at 0.3 µM [7] was 96%, the remaining binding at 0.3 µM [8] was 93% and the remaining binding at 0.3 µM [9] was 95%. It also gave a remaining binding at 0.3 µM [10] of 90%.
In the case of `C=CC(=O)N1CCC[C@@H](n2nc(-c3ccc(Oc4ccccc4)cc3)c3c(N)ncnc32)C1` [Ibrutinib], the remaining binding at 0.3 µM [11] is reported as 92%, the remaining binding at 0.3 µM [12] is reported as 82% and the remaining binding at 0.3 µM [13] is reported as 99%. For the same compound, the remaining binding at 0.3 µM [14] was 80%.
For `CC#CC(=O)N1CC[C@@H](n2c(=O)n(-c3ccc(Oc4ccccc4)cc3)c3c(N)ncnc32)C1` [Tirabrutinib], the remaining binding at 0.3 µM [15] was 80%.
`C=CC(=O)N1CCC([C@@H]2CCNc3c(C(N)=O)c(-c4ccc(Oc5ccccc5)cc4)nn32)CC1` [Zanubrutinib] was tested, and the remaining binding at 0.3 µM [16] was 100%, the remaining binding at 0.3 µM [17] was 64% and the remaining binding at 0.3 µM [18] was 94%. It also gave a remaining binding at 0.3 µM [19] of 88%, a remaining binding at 0.3 µM [20] of 93% and a remaining binding at 0.3 µM [21] of 100%. It also gave a remaining binding at 0.3 µM [22] of 97% and a remaining binding at 0.3 µM [23] of 97%.
